Patent US5585381A, “Pyrimidine derivatives and pharmaceutical composition” (Kureha Chemical Industry Co., Ltd., priority 1994, dated 1996)

Tests used:
[1] = target: T1, angiotensin II receptor subtype 2 (AT2) (Bos taurus, UniProt G5E6F7); test: Binding to angiotensin II receptor subtype 2 (AT2); parameters: species or system bovine (cerebellar cortex); conditions: 125I-Tyr4-angiotensin II tracer, 37° C., 1 hour
T1 construct: from cerebellar cortex in bovine; from tissue; host or cells: bovine cerebellar cortex
T1 sequence (G5E6F7 1-362): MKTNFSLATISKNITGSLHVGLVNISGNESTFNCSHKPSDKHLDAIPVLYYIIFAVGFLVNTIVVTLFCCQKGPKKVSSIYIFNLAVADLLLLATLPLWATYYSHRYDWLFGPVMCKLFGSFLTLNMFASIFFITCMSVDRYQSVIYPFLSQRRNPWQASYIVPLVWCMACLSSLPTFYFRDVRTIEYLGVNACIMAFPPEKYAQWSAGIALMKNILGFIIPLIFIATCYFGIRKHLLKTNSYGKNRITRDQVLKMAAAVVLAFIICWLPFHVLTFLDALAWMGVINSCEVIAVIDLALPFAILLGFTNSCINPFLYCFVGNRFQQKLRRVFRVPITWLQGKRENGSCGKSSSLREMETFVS
Procedure: (§1) In this Example, the affinity to the angiotensin II receptor subtype 1 or subtype 2 was evaluated by a binding assay in accordance with the method described in Biochem. Pharmacol., 33, 4057-4062 (1984).
(§2) Specifically, the measurement of the total binding in the presence of each drug was performed as follows:
(§3) A mixture (final volume=0.25 ml) of a drug in a given concentration (the drug was dissolved in DMSO, and diluted to a double volume with a buffer attached to a drug discovery system to prepare sample for the assay; 0,025 ml), a tracer (0.025 ml), and receptors (0.2 ml) was incubated [in the case of the angiotensin II receptor subtype 1 (AT1), at room temperature for 3 hours, and in the case of the subtype 2 (AT2), at 37° C. for 1 hour]. Then, the reaction mixture was filtered with suction (GF/C filter was used in AT1, and GF/B filter was used in AT2). The filter papers after filtration with suction (the tracer bound to the receptors) were counted by a γ-well counter (ARC-500, Aloka). The non-specific bindings were measured by repeating the above method, except that a large excess amount of a displacer was added. The specific binding of the drug in the given concentration was calculated by subtracting the non-specific binding from the total binding, respectively.
(§4) In AT1 and AT2, the percentages to inhibit the bindings of radioactive ligands (tracer) to receptors by the drugs to be tested (IC50 value of concentration to show 50% inhibition, or binding inhibition % in 100 μM) were measured, using the drugs to be tested and control drugs in the given concentration.
from cerebellar cortex in bovine
tracer: ^125 I-Tyr^4 -angiotensin II

[2] = tested on: kidney disease model rats; test: Action to survival time of kidney diseased animals; type: in vivo, Sprague-Dawley female rats; conditions: 20 mg/kg/day per os; observation eight weeks (upper limit); control 5.0
Procedure: (§5) The compounds of the present invention and the reference substance were forcedly administered per os to kidney disease model rats, and the action to depress blood pressure was observed. The kidney disease model rats were prepared by ligature of branches of renal artery in accordance with the conventional method, that is, the left hilum renalis of Sprague-Dawley female rats was exposed under anesthesia, and one of four secondary branches of renal artery was left unligated, while the remaining three branches were ligated, respectively. After a week, the hilum renalis (artery, vein, and ureter) of the right kidney were further ligated to thereby prepare the rats whose renal function was lowered to approximately 1/8 of the normal function. Each group consisted of eight rats. The drugs to be tested (20 mg/kg) were administered to each administering group, and only water was administered to control group. After two days from the administration, the systolic blood pressure was measured by the tail cuff method using a blood pressure measuring apparatus (UR5000; Ueda).
The kidney disease model rats were prepared as in Example 21. Fifteen groups (8 rats per group) were prepared in a manner so that there was no major difference between the groups in the serum creatinine value and the urea nitrogen value indicating renal function. The rats in each group were allowed to freely take up feed and water. […] To the rats in the control group, only water was forcedly administered per os every day. If kidney diseases are aggravated, the rat will die of uremia. Thus, the survival time was observed as comprehensive indication of the improvement effect on the kidney diseases. The observation period was eight weeks. Thus if all rats survived, the average survival time is eight weeks and it is an upper limit.

[3] = target: T2, angiotensin II receptor subtype 1 (AT1) (Oryctolagus cuniculus, UniProt P34976); test: Binding to angiotensin II receptor subtype 1 (AT1); parameters: species or system rabbits (adrenal glands); conditions: 3H-angiotensin II tracer; for IC50: room temperature, 3 hours
T2 construct: from adrenal glands in rabbits; from tissue; host or cells: rabbit adrenal glands
T2 sequence (P34976 1-359): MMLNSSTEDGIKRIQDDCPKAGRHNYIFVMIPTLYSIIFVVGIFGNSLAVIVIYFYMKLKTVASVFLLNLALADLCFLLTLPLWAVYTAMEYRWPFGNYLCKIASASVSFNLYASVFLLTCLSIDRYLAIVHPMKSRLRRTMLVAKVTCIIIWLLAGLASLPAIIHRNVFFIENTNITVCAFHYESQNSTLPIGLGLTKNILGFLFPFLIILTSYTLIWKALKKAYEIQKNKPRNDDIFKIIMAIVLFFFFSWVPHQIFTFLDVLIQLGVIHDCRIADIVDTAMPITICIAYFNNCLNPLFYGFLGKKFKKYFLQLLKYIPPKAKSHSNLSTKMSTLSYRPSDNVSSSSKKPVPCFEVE
Procedure: as §1, §2, §3, §4

[4] = tested on: kidney disease model rats; test: Renal function indicatory value (action to kidney diseases); type: in vivo, Sprague-Dawley female rats; conditions: 20 mg/kg/day per os, two weeks; for Creatinine clearance (CCr): control 0.20; for Creatinine (serum, Scr): control 2.0; for Urea nitrogen (BUN): control 100
Procedure: The kidney disease model rats were prepared by ligature of branches of renal artery in accordance with the conventional method, that is, the left hilum renalis of Sprague-Dawley female rats was exposed under anesthesia, and one of four secondary branches of renal artery was left unligated, while the remaining three branches were ligated, respectively. […] Each group consisted of eight rats. The drugs to be tested (20 mg/kg) were administered to each administering group, and only water was administered to control group. After two days from the administration, the systolic blood pressure was measured by the tail cuff method using a blood pressure measuring apparatus (UR5000; Ueda).
The kidney disease model rats were prepared as in Example 21. Fifteen groups (8 rats per group) were sleeked in a manner so that there were no major differences between each group in the serum creatinine value and the urea nitrogen value indicating renal function. The rats in each group were allowed to freely take up feed and water. […] To the rats in the control group, only water was forcedly administered per os every day. After two weeks, 0.2 ml of blood was collected from the carotid artery of the rat under anesthesia, and centrifuged to obtain serum. Using 25 μl of the serum, serum creatinine (Scr) was measured by a creatinine analytical instrument (Beckman). Using 10 μl of the serum, urea nitrogen (BUN) was measured by a BUN analytical instrument (Beckman). Creatinine clearance was evaluated as follows:
After serum creatinine measurement, rats were placed in urinary metabolic cages for 24 hours to collect urine. Urinary creatine concentration (Ucr) was measured by a creatinine analytical instrument, and total volume of urination (Uvol) was also measured. Creatinine clearance (CCr) was calculated by the following formula: [formula]

[5] = tested on: kidney disease model rats; test: Action to depress blood pressure in kidney disease model rats (tail cuff); type: in vivo, Sprague-Dawley female rats; conditions: 20 mg/kg per os; after two days; control 210 mmHg
Procedure: as §5

[6] = ACE inhibitor; cited from earlier work

| Compound | inhibition at 100 µM [1] [%] | Average survival time [2] [weeks] | inhibition at 100 µM [3] [%] | Creatinine clearance (CCr) [4] [mL/min] | Creatinine (serum, Scr) [4] [mg/dL] | Urea nitrogen (BUN) [4] [mg/dL] | Blood pressure (average systolic) [5] [mmHg] | IC50 [3] [µM] | blood pressure [6] | progress of renal dysfunction [6] |
| --- | --- | --- | --- | --- | --- | --- | --- | --- | --- | --- |
| CCCCC(=O)Nc1c(NCc2ccccc2)ncnc1NCc1ccc(C(=O)O)cc1 [Compound No. 7, 4-[[(6-benzylamino-5-valeramido)pyrimidin-4-yl]aminomethyl]benzoic acid] | 0 | 7.0 | 1 | 0.33 | 1.6 | 80 | 208 |  |  |  |
| CCCCC(=O)Nc1c(NCCc2ccccc2)ncnc1NCc1ccc(C(=O)O)cc1 [Compound No. 8, 4-[[(6-phenethylamino-5-valeramido)pyrimidin-4-yl]aminomethyl]benzoic acid] | 0 | 7.1 | 0 | 0.33 | 1.6 | 79 | 203 |  |  |  |
| CCCCC(=O)Nc1c(NCCCc2ccccc2)ncnc1NCc1ccc(C(=O)O)cc1 [Compound No. 9, 4-[[(6-phenylpropylamino-5-valeramido)pyrimidin-4-yl]aminomethyl]benzoic acid] | 0 | 6.9 | 6 | 0.31 | 1.6 | 80 | 204 |  |  |  |
| CCCCC(=O)Nc1c(NCc2ccc(OC)cc2)ncnc1NCc1ccc(C(=O)O)cc1 [Compound No. 10] | 0 | 7.0 | 6 | 0.33 | 1.6 | 81 | 208 |  |  |  |
| CCCCC(=O)Nc1c(NCc2ccc(C(=O)O)cc2)ncnc1OCc1ccccc1 [Compound No. 11, 4-[[(6-benzyoloxy-5-valermido)pyrimidin-4-yl]aminomethyl]benzoic acid] |  | 7.5 |  | 0.35 | 1.6 | 78 | 202 | 15 |  |  |
| CCCCC(=O)Nc1c(Cl)ncnc1NCc1ccc(OC)cc1 [Compound No. 48, 4-[[(6-Chloro-5-Valeramido)pyrimidin-4-yl]aminomethyl]anisole] | 0 | 6.9 | 0 | 0.30 | 1.7 | 83 | 207 |  |  |  |
| CCCCC(=O)Nc1c(NCc2ccc(C(=O)O)cc2)ncnc1N(C)Cc1ccccc1 [Compound No. 61, 4-[[(6-N-benzylmethylamino-5-valeramido)pyrimidin-4-yl]aminomethyl]benzoic acid] | 0 | 6.9 | 42 | 0.32 | 1.6 | 81 | 205 |  |  |  |
| CCCCC(=O)Nc1c(NCc2ccccc2)ncnc1NCc1ccc(OC)cc1 [Compound No. 89, 4-[[(6-benzylamino-5-valeramido)pyrimidin-4-yl]aminomethyl]anisole] | 0 | 7.0 | 11 | 0.33 | 1.6 | 80 | 204 |  |  |  |
| C[C@H](CS)C(=O)N1CCC[C@H]1C(=O)O [captoril] |  |  |  |  |  |  |  |  | blood pressure is lowered | the progress of renal dysfunction is improved |
| CCCCC(=O)Nc1c(NCc2ccc(C(=O)O)cc2)ncnc1OC [compound 2, 4-[[(6-methoxy-5-valeramido)pyrimidin-4-yl]aminomethyl]benzoic acid] | 0 | 7.5 |  | 0.35 | 1.6 | 78 | 201 | 28 |  |  |
| CCCCC(=O)Nc1c(NCCc2ccccc2)ncnc1NCc1ccc(OC)cc1 [compound 90, 4-[[(6-phenethylamino-5-valeramido)pyrimidin-4-yl]aminomethyl]anisole] | 0 | 6.9 | 20 | 0.29 | 1.7 | 82 | 208 |  |  |  |
| CCOC(=O)[C@H](CCc1ccccc1)N[C@@H](C)C(=O)N1CCC[C@H]1C(=O)O [enalapril] |  |  |  |  |  |  |  |  | blood pressure is lowered | the progress of renal dysfunction is improved |
